Data as given in US9272990B2, “Lysophosphatidic acid receptor antagonists and their use in the treatment fibrosis” (AMIRA PHARMACEUTICALS, INC., priority 2010, dated 2016).
One block for each compound: values may come before it.

Key:
LPA3 receptor = target: T1, LPA3 receptor (Mus musculus, UniProt Q9EQ31); settings: in the presence of the agonist; cited from earlier work
T1 construct: host or cells: mouse kidney in vivo
T1 sequence (Q9EQ31 1-354): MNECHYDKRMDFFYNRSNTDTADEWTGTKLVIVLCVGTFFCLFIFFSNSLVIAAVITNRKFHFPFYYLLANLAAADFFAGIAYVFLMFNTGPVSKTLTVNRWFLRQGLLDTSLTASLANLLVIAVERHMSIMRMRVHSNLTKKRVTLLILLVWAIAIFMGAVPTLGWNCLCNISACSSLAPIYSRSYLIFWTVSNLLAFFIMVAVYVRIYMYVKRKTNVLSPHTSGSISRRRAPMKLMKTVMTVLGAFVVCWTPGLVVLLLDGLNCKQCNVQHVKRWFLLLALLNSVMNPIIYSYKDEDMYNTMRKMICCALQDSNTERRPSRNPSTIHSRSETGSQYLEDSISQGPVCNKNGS

bone metastasis = settings: in vivo; cited from earlier work
[1] = test system: highly peritoneal metastatic pancreatic cancer cell line; settings: cited from earlier work
[2] = test system: mouse epithelial renal cell line, MCT; settings: co-treatment with LPA, MCT cells; cited from earlier work
UUO mice = settings: compared with LPA1 (−/−) mice; cited from earlier work
[3] = test system: human foetal lung fibroblasts; settings: cited from earlier work
[4] = test system: pancreatic cancer cell lines; settings: cited from earlier work
nerve-injured mice = settings: pretreatment; cited from earlier work
[5] = test system: mouse bleomycin lung fibrosis model; test: Bleomycin-induced lung fibrosis model in mice; type: in vivo
Source text: Female C57Bl/6 mice (Harlan, 25-30 g) are housed 4 per cage, given free access to food and water and allowed to acclimate for at least 7 days prior to test initiation. After the habituation phase, mice are lightly anesthetized with isoflurane (5% in 100% O2) and administered with bleomycin sulfate (0.01-5 U/kg, Henry Schein) via intratracheal instillation (Cuzzocrea, S et al., Am. J. Physiol. Lung Cell Mol. Physiol., 292(5):L1095-104 (May 2007) (Epub Jan. 12, 2007). Mice are returned to their cages and monitored daily for the duration of the experiment. Test compound or vehicle is delivered po, ip or sc daily. The route and frequency of dosing is based on previously determined pharmacokinetic properties. All animals are sacrificed using inhaled isoflurane 3, 7, 14, 21 or 28 days after bleomycin instillation. Following sacrifice, mice are intubated with a 20 gauge angiocatheter attached to a 1 ml syringe. Lungs are lavaged with saline to obtain bronchoalveolar lavage fluid (BALF) and then removed and fixed in 10% neutral buffered formalin for subsequent histopathological analysis. BALF is centrifuged for 10 min at 800×g to pellet the cells and the cell supernatant removed and frozen at −80° C. for subsequent protein analysis using the DC protein assay kit (Biorad, Hercules, Calif.) and soluble collagen analysis using Sircol (Biocolor Ltd, UK). BALF is analyzed for concentrations of inflammatory, pro-fibrotic and tissue injury biomarkers including transforming growth factor β1, hyaluronic acid, tissue inhibitor of metalloproteinase-1, matrix matelloproteinase-7, connective tissue growth factor and lactate dehydrogenase activity, using commercially available ELISA. The cell pellet is re-suspended in PBS. Total cell counts are then obtained using a HEMAVET® hematology system (Drew Scientific, Wayne, Pa.) and differential cells counts are determined using Shandon cytospin (Thermo Scientific, Waltham, Mass.). Lung tissue is stained using hematoxylin and eosin (H&E) and trichrome and lung fibrosis is determined by semiquantitative histopathological scoring (Ashcroft T. et al., J. Clin. Path., 41(4):467-470 (1988)) using light microscopy (10× magnification) and quantitative, computer-assisted densitometry of collagen in lung tissue sections using light microscopy. The data are plotted using Graphpad prism and statistical differences between groups determined

Human LPA1 = target: T2, Human LPA1 (Homo sapiens, UniProt Q92633); test: LPA1 calcium flux assay; type: cell-based; settings: CHO cells expressing human LPA1, stimulated with 10 nM LPA; read-out: LPA1 Ca^2+ flux
T2 construct: the full-length cDNA for human LPA1 was obtained by PCR of the reverse transcription reaction; expressed in transfected cells
Method: A 1.1 kb cDNA encoding the human LPA1 receptor was cloned from human lung. Human lung RNA (Clontech Laboratories, Inc. USA) was reverse transcribed using the RETROSCRIPT® kit (Ambion, Inc.) and the full-length cDNA for human LPA1 was obtained by PCR of the reverse transcription reaction. The nucleotide sequence of the cloned human LPA1 was determined by sequencing and confirmed to be identical to the published human LPA1 sequence (An et al., Biochem. Biophys. Res. Commun. 231:619 (1997). The cDNA was cloned into the pcDNA5/FRT expression plasmid and transfected in CHO cells using Lipofectamine 2000 (Invitrogen Corp., USA). Clones stably expressing human LPA1 were selected using hygromycin and identified as cells that show Ca-influx in response to LPA.
Human LPA1 or LPA3 expressing CHO cells are seeded at 20,000-45,000 cells per well in a 96-well poly-D-lysine coated plate one or two days before the assay. Prior to the assay, the cells are washed once with PBS and then cultured in serum-free media overnight. On the day of the assay, a calcium indicator dye (Calcium 4, Molecular Devices) in assay buffer (HBSS with Ca^2+ and Mg^2+ and containing 20 mM Hepes and 0.3% fatty-acid free human serum albumin) is added to each well and incubation continued for 1 hour at 37° C. 10 μl of test compounds in 2.5% DMSO are added to the cells and incubation continued at room temperature for 30 minutes. Cells are the stimulated by the addition of 10 nM LPA and intracellular Ca^2+ measured using the FLEXSTATION® 3 (Molecular Devices). IC50s are determined using Graphpad prism analysis of drug titration curves.

[6] = multiple timepoints following intratracheal bleomycin instillation

T2 sequence (Q92633 whole entry): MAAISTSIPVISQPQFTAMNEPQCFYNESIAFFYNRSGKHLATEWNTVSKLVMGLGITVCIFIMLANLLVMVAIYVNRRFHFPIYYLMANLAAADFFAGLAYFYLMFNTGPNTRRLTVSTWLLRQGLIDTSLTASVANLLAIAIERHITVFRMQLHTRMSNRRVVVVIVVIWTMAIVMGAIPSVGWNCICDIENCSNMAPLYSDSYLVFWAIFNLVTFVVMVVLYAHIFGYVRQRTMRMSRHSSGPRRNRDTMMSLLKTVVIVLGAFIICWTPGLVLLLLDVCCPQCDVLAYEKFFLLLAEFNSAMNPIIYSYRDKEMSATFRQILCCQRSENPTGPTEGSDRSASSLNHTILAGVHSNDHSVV

SMILES: CCCCCCCC/C=C\CCCCCCCC(=O)OC[C@@H](COP(O)(O)=S)OC [OMPT]
reduction of severity of injury by blockade of the LPA3 receptor (LPA3 receptor): reversed

SMILES: Cc1noc(-c2ccc(CSCCC(=O)O)cc2)c1NC(=O)OC(C)c1ccccc1Cl (centres unmarked) [Ki16425]
metastasis to bone (bone metastasis): inhibit metastasis to bone
LPA-induced and ascites-induced invasion activity [1]: blocked
LPA-induced expression of the profibrotic cytokine CTGF [2]: almost completely suppressed
development of renal fibrosis (UUO mice): closely resembled the LPA1 (−/−) mice
chemotaxis of human foetal lung fibroblasts induced by BAL from IPF patients [3]: blocked
increased fibroblast chemotactic activity in bronchoalveolar lavage samples of human subjects with IPF [3]: inhibited
in vitro migration in response to LPA and peritoneal fluid (ascites) from pancreatic cancer patients [4]: effectively blocked

SMILES: C[C@@H](N)[C@H]1CC[C@H](C(=O)Nc2ccncc2)CC1 [Compound Y-27632]
allodynia and hyperalgesia (nerve-injured mice): completely abolished

IC50 (Human LPA1): < 0.3 µM
SMILES: CC(OC(=O)Nc1ccncc1-c1ccc(-c2ccc(C3(C(=O)O)CC3)cc2)cc1)c1ccccc1Cl (centres unmarked) [Compound 1-1, 1-(4′-{4-[1-(2-chloro-phenyl)-ethoxycarbonylamino]-pyridin-3-yl}-biphenyl-4-yl)-cyclopropanecarboxylic acid]
BALF MMP-7 ([5]; acute setting (3 day)): reduced
BALF TGFβ1 ([5]; acute setting (3 day)): reduced
BALF collagen ([5]; acute setting (3 day)): reduced
BALF hyaluronan ([5]; acute setting (3 day)): reduced
BALF inflammatory cell influx ([5]; acute setting (3 day)): reduced
BALF protein ([5]; acute setting (3 day)): reduced
fibrosis [5, 6]: reduced
inflammation [5, 6]: reduced
lung injury [5, 6]: reduced
vascular leakage [5, 6]: reduced
